Consider one substance from patent US9393288B2, “Methods of treating diseases associated with PPARγ” (The University of Vermont and State Agricultural College, priority 2012, dated 2016).

Assay type in all cases: in vivo, rat
Assay [1] concerns parenchymal arterioles (PA). The assay is described as follows: Pressurized arteriograph: vascular reactivity and structure of PA from female SHR. Here is the method:
A separate group of SHR-F was used to determine if relaxin crosses the BBB by treating with relaxin (4 μg/hr) for 14 days and measuring relaxin concentration in cerebrospinal fluid (CSF) and serum (SHR-F-Rln-CSF, n=4). For the osmotic pump implant, animals were anesthetized with 3% isoflurane and minipumps implanted subcutaneously in the back of the neck. All animals received post-surgical analgesia (buprenorphine, 50 μg/kg, s.c.). Relaxin infusion was continuous for 14 days until animals were euthanized for isolated vessel experiments and tissue collection.
After collecting trunk blood, the brain was quickly removed and placed in cold physiological salt solution (PSS). PA between the M1 and M2 region of the MCA territory and the MCA from the same animals were carefully isolated from WKY-F, SHR-F, and SHR-F-Rln groups and mounted on glass cannulas. PA were identified as branches off the MCA that penetrated into the brain tissue, as previously described (han, S. L., and Cipolla, M. J. (2011) Relaxin causes selective outward remodeling of brain parenchymal arterioles via activation of peroxisome proliferator-activated receptor-gamma. FASEB J 25, 3229-3239). […] The proximal cannula was connected to an in-line pressure transducer and a servo-null pressure control system (Living Systems Instrumentation, Burlington, Vt., USA) that allowed intravascular pressure to be maintained at a set pressure or changed at a variable rate. The distal cannula was closed during the experiment to avoid flow-mediated responses. Temperature and pH were continuously measured and maintained at 37.0±0.5° C. and 7.40±0.05, respectively. Measurements of inner diameter (ID) and wall thickness (WT) were made via video microscopy (Living Systems Instrumentation, Burlington, Vt.).
PA and MCA were equilibrated for 1 hour, after which myogenic activity was determined by stepwise increases in pressure from 40 to 100 mmHg for PA or 50 to 175 mmHg for MCA. ID and WT were measured at each pressure once stable. Endothelium-dependent dilation was studied by adding NS309 (10^−8-10^−5 M), an activator of small- and intermediate-conductance calcium-activated potassium channels (SKCa, IKCa). NS309 was washed out of the bath and a single concentration of the nitric oxide synthase (NOS) inhibitor L-nitro-n-arginine (L-NNA, 10^−4 M) added to the bath. Constriction to NOS inhibition was used as an additional indicator of endothelial function. In the presence of L-NNA, sodium nitroprusside (SNP, 10^−8-10^−5 M) was added to the bath to assess endothelium-independent vasodilation. To obtain structural measurements, ID and WT were recorded at pressures between 5 to 200 mmHg for PA or 5 to 175 mmHg for MCA in zero-calcium PSS containing ethylene glycol tetra-acetic acid (EGTA) and outer diameter (OD) and distensibility calculated.
Percent tone was calculated as percent decrease in ID from the passive diameter at each intravascular pressure: [1−(IDactive/IDpassive)]×100. Percent reactivity for vasodilators was calculated as ((IDdose−IDstart)/(IDpassive−IDstart))×100. Percent constriction for vasoconstrictor was calculated as (1−(IDdose/IDstart))×100. OD was calculated from measured ID and WT: ID+2WT. Distensibility at a given pressure was calculated as (IDpassive−IDoriginal)/(IDoriginal)×100, where IDoriginal is defined as passive inner diameter determined at lowest pressure (5 mmHg). Data from qPCR study were analyzed using the −2^ΔΔCT method, as described previously (Livak, K. J., and Schmittgen, T. D. (2001) Analysis of relative gene expression data using real-time quantitative PCR and the 2(−Delta Delta C(T)) Method. Methods 25, 402-408). Data were removed when the Ct values of technical replicates differed by more than 0.5.

Another assay relates to brain capillaries. The assay is described as follows: Brain capillary density (von Willebrand factor immunohistochemistry, capillary counting) in SHR. Particulars: relaxin-treated SHR vs WKY and untreated SHR.
In the next assay the test system is MMP-2. The assay is described as follows: MMP-2 mRNA expression (qPCR) in brain cortex and PA, SHR. The settings on record: relaxin-treated SHR. The method, then:
After dissecting PA and MCA for isolated vessel experiments, the remaining MCA, PA, and brain cortex from the MCA territory of 4-6 rats were collected and stored at −80° C. in RNase inhibitor (1 unit/μl, RiboLock, Fermentas, Glen Burnie, Md., USA) to determine mRNA expression levels of target genes using real-time qPCR methods. Target genes were assessed using Assays on Demand from Applied Biosystems. […] All primers were designed across an exon-exon junction to avoid detecting genomic DNA, so no DNase treatment was required. Housekeeping gene β-actin was used in all qPCR experiments as a control. […]
To investigate the mechanisms by which relaxin causes selectively remodeling of PA, mRNA expression of VEGF, MMP-2, and MMP-9 were compared between MCA, PA, brain cortex. To determine if relaxin activates peroxisome proliferator-activated receptor-gamma (PPARγ), expression levels of PPARγ target genes fatty acid binding protein-4 (FABP4) and plasminogen activator inhibitor-1 (PAI-1) were determined in mesenteric adipose tissue. Expression levels of PPARγ and its target genes PAI-1 and liver X receptors-α (LXR-α) were also determined in brain cortex (Chan, S. L., and Cipolla, M. J. (2012) Determination of PPARgamma activity in adipose tissue and spleen. J Immunoassay Immunochem 33, 314-324).
Background: Quantitative PCR measures a nucleic acid by following its amplification.

[2] abbreviates: SHR-F-Rln vs untreated SHR-F, listed as Relaxin.

Entries after “also recorded” stand apart in the source; their conditions may differ.

In the case of relaxin, the “Reactivity of PA to NS309 (inner diameter increased by)” value in assay [1] (NS309 10^−6 M, vs 39±11% in SHR-F, p=0.058) is 67±8%. In assay [1] (SHR treated with human relaxin-2 4 μg/hr 14 days, untreated groups 58±3 and 49±3, p<0.05), this substance had a PA inner diameter of 56±4 μm. The substance further registered a PA distensibility in assay [1] (SHR, relaxin 4 μg/hr 14 days, vs 10±2% in SHR-F, p<0.05) of 34±2%. Moreover, in assay [1] (SHR-F-Rln vs untreated SHR-F), the “Myogenic reactivity (active ID) of PA” value is reported as “did not affect”, the “Myogenic tone (percent tone) of PA” value is on record as “did not affect”, the “Passive ID of PA” value is given as “increases the size; also recorded: increased” and the “Passive OD of PA” value is on record as “increased”. For the same substance, in assay [1] (SHR-F-Rln vs untreated SHR-F), the “Passive distensibility of PA” value is listed as “increased”. For the same substance, in assay [1] (setting [2]), the “Myogenic tone (percent tone) of PA” value was “without affecting”, the “Passive ID of PA” value is listed as “increased”, the “Passive distensibility of PA” value is reported as “big effect; also recorded: increased” and the “Reactivity of PA to the SKCa/IKCa activator NS309” value was “tended to increase; also recorded: increased”. Moreover, the “Passive ID of PA” value in assay [1] (at 5 mmHg, vs 44±2 μm in SHR-F) is 42±3 μm. In addition, in assay [1] (hypertensive rats, relaxin alone), the “Kind of structural remodeling of PA” value is given as “outward eutrophic remodeling”. The “Number of capillaries in the brain (capillary density)” value with brain capillaries is “significant increase”. The “MMP-2 expression in brain cortex” value with MMP-2 was “increased”.
